From patent US8426408B2, “Pyrimidine inhibitors of kinases” (AbbVie Inc., priority 2009, dated 2013) come the findings set out here.

One experiment has as its target T1, Aurora B (Homo sapiens, UniProt Q96GD4).
T1 construct: Active Aurora B enzyme (recombinant residues 1-344)
Put plainly: Aurora B enzyme inhibition (time-resolved fluorescence, histone H3 peptide). Format: biochemical. The note with it: 1 mM ATP. In short, it runs like this: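 IC50s came from an exponential fit of inhibition against inhibitor concentration, with phosphorylation read as the 665/615 nm time-resolved fluorescence ratio after EDTA stop using Eu-anti-phospho-H3 and SA-APC. The 1 h reaction used Aurora B 1-344 plus GST-INCENP, biotin-histone H3 1-21 peptide and 1 mM ATP in pH 7.4 HEPES buffer.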

The target of a further experiment is T2, Aurora A (Homo sapiens, UniProt O14965).
T2 sequence (O14965 1-403): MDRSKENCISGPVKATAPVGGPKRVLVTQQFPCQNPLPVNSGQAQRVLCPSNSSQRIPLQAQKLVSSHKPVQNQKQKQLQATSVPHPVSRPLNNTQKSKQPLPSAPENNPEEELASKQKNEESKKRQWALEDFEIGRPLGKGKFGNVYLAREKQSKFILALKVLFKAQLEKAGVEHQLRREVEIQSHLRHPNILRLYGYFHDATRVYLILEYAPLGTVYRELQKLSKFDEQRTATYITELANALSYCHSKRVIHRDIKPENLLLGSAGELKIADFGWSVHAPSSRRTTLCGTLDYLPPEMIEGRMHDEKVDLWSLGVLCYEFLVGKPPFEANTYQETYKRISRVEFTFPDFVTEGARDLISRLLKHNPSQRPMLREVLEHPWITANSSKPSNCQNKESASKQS
Put plainly: Aurora A enzyme inhibition (time-resolved fluorescence, STK substrate-2). It is filed as biochemical. The conditions noted are these: 1 mM ATP. In a few lines:
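Phosphorylation of biotinylated STK substrate-2 at 1 mM ATP, 1 h, Hepes buffer pH 7.4 (MgCl2, sodium orthovanadate, Triton X-100). After EDTA quench, 665/615 nm time-resolved fluorescence ratio read via europium anti-phospho antibody and SA-XL665; IC50 from exponential fit versus inhibitor concentration.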

Where only a bound is given, the exact number is not on record here.

A word on the Ki: it is a measure of affinity in units of concentration, obtained from inhibition or displacement.

T1 sequence (Q96GD4 whole entry, the tested form may be a part): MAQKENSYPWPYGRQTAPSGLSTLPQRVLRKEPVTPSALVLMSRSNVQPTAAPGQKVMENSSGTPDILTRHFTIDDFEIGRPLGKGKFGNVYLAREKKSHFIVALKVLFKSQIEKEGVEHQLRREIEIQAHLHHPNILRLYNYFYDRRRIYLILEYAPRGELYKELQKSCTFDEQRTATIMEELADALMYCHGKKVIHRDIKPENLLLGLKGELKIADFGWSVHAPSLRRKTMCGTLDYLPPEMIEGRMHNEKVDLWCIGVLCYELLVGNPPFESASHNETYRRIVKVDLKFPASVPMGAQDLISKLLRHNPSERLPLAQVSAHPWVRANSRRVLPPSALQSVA
T1 sequence (Q9NQS7 826-918 partner limits assumed): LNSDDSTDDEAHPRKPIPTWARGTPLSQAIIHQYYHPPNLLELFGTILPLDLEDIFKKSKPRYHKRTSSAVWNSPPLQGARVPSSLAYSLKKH

Consider `Cc1nn(C)cc1Nc1ncc(Cl)c(N[C@H]2[C@@H](C(N)=O)[C@@H]3C=C[C@H]2C3)n1` [Example 134, (1S,2S,3R,4R)-3-({5-chloro-2-[(1,3-dimethyl-1H-pyrazol-4-yl)amino]pyrimidin-4-yl}amino)bicyclo[2.2.1]hept-5-ene-2-carboxamide], for which the Ki at Aurora B and at Aurora A was below 100 nM each time.
With `Cc1nn(C)cc1Nc1ncc(Br)c(N[C@H]2[C@@H](C(N)=O)[C@@H]3C=C[C@H]2C3)n1` [Example 135, (1S,2S,3R,4R)-3-({5-bromo-2-[(1,3-dimethyl-1H-pyrazol-4-yl)amino]pyrimidin-4-yl}amino)bicyclo[2.2.1]hept-5-ene-2-carboxamide], the Ki on Aurora B and at Aurora A was below 100 nM throughout.
For `NC(=O)[C@@H]1[C@H](Nc2nc(Nc3cnn([C@@H]4CCOC4)c3)ncc2Cl)[C@H]2C=C[C@@H]1C2` [Example 107, (1S,2S,3R,4R)-3-{[5-chloro-2-({1-[(3R)-tetrahydrofuran-3-yl]-1H-pyrazol-4-yl}amino)pyrimidin-4-yl]amino}bicyclo[2.2.1]hept-5-ene-2-carboxamide], the Ki on Aurora B and on Aurora A was below 100 nM in each case.
Turning to `NC(=O)[C@@H]1[C@H](Nc2nc(Nc3cnn(C[C@H]4CCCN4)c3)ncc2Cl)[C@H]2C=C[C@@H]1C2` [Example 102, (1S,2S,3R,4R)-3-{[5-chloro-2-({1-[(2R)-pyrrolidin-2-ylmethyl]-1H-pyrazol-4-yl}amino)pyrimidin-4-yl]amino}bicyclo[2.2.1]hept-5-ene-2-carboxamide], the Ki at Aurora B and at Aurora A was below 100 nM each time.
Take `Cn1cc(Nc2ncc(C(F)(F)F)c(Nc3ccccc3C3(O)CCC3)n2)cn1` [Example 115, 1-[2-({2-[(1-methyl-1H-pyrazol-4-yl)amino]-5-(trifluoromethyl)pyrimidin-4-yl}amino)phenyl]cyclobutanol]: the Ki at Aurora B and at Aurora A was below 100 nM each time.
Turning to `NC(=O)[C@H]1[C@@H]2CC[C@@H](C2)[C@H]1Nc1nc(Nc2cnn(CCO)c2)ncc1Cl` [Example 93, (1R,2S,3R,4S)-3-[(5-chloro-2-{[1-(2-hydroxyethyl)-1H-pyrazol-4-yl]amino}pyrimidin-4-yl)amino]bicyclo[2.2.1]heptane-2-carboxamide], the inhibition constant Ki on Aurora B and at Aurora A was below 100 nM each time.
Consider `COc1ccc(Cn2cc(Nc3ncc(Cl)c(N[C@H]4[C@@H](C(N)=O)[C@@H]5C=C[C@H]4C5)n3)cn2)cc1F` [Example 192, (1S,2S,3R,4R)-3-[(5-chloro-2-{[1-(3-fluoro-4-methoxybenzyl)-1H-pyrazol-4-yl]amino}pyrimidin-4-yl)amino]bicyclo[2.2.1]hept-5-ene-2-carboxamide], for which the Ki at Aurora B and on Aurora A was below 100 nM in each case.
Consider `NC(=O)[C@@H]1[C@H](Nc2nc(Nc3cnn(C[C@H](O)CO)c3)ncc2Cl)[C@H]2C=C[C@@H]1C2` [Example 124, (1S,2S,3R,4R)-3-{[5-chloro-2-({1-[(2S)-2,3-dihydroxypropyl]-1H-pyrazol-4-yl}amino)pyrimidin-4-yl]amino}bicyclo[2.2.1]hept-5-ene-2-carboxamide], for which the Ki on Aurora B and on Aurora A was below 100 nM in each case.
In the case of `NC(=O)[C@@H]1[C@H](Nc2nc(Nc3cnn([C@@H]4CCOC4)c3)ncc2Br)[C@H]2C=C[C@@H]1C2` [Example 116, (1S,2S,3R,4R)-3-{[5-bromo-2-({1-[(3R)-tetrahydrofuran-3-yl]-1H-pyrazol-4-yl}amino)pyrimidin-4-yl]amino}bicyclo[2.2.1]hept-5-ene-2-carboxamide], the Ki on Aurora B and on Aurora A was below 100 nM each time.
As for `NC(=O)[C@@H]1[C@H](Nc2nc(Nc3cnn(-c4ccccc4)c3)ncc2Cl)[C@H]2C=C[C@@H]1C2` [Example 174, (1S,2S,3R,4R)-3-({5-chloro-2-[(1-phenyl-1H-pyrazol-4-yl)amino]pyrimidin-4-yl}amino)bicyclo[2.2.1]hept-5-ene-2-carboxamide], the Ki on Aurora B and at Aurora A was below 100 nM throughout.
On to `NC(=O)[C@@H]1[C@H](Nc2nc(Nc3cnn(CC4CCO4)c3)ncc2Cl)[C@H]2C=C[C@@H]1C2` (stereo partly drawn) [Example 129, (1S,2S,3R,4R)-3-[(5-chloro-2-{[1-(oxetan-2-ylmethyl)-1H-pyrazol-4-yl]amino}pyrimidin-4-yl)amino]bicyclo[2.2.1]hept-5-ene-2-carboxamide], for which the Ki on Aurora B and at Aurora A was below 100 nM in each case.
As for `Cn1cc(Nc2ncc(C(F)(F)F)c(N[C@H]3[C@@H](C(N)=O)C[C@H]4C[C@@H]3C4(C)C)n2)cn1` [Example 167, (1R,2R,3S,5R)-6,6-dimethyl-2-({2-[(1-methyl-1H-pyrazol-4-yl)amino]-5-(trifluoromethyl)pyrimidin-4-yl}amino)bicyclo[3.1.1]heptane-3-carboxamide], the Ki at Aurora B and on Aurora A was below 100 nM throughout.
In the case of `NC(=O)[C@@H]1[C@H](Nc2nc(Nc3cnn(CCc4ccccc4)c3)ncc2Br)[C@H]2C=C[C@@H]1C2` [Example 148, (1S,2S,3R,4R)-3-[(5-bromo-2-{[1-(2-phenylethyl)-1H-pyrazol-4-yl]amino}pyrimidin-4-yl)amino]bicyclo[2.2.1]hept-5-ene-2-carboxamide], the Ki on Aurora B and at Aurora A was below 100 nM each time.
Regarding `NC(=O)[C@@H]1[C@H](Nc2nc(Nc3cnn(Cc4cccc(Cl)c4)c3)ncc2Cl)[C@H]2C=C[C@@H]1C2` [Example 157, (1S,2S,3R,4R)-3-[(5-chloro-2-{[1-(3-chlorobenzyl)-1H-pyrazol-4-yl]amino}pyrimidin-4-yl)amino]bicyclo[2.2.1]hept-5-ene-2-carboxamide], the Ki at Aurora B and on Aurora A was below 100 nM in each case.
On to `NC(=O)[C@@H]1[C@H](Nc2nc(Nc3cnn(CCc4cccc(Cl)c4)c3)ncc2Cl)[C@H]2C=C[C@@H]1C2` [Example 158, (1S,2S,3R,4R)-3-{[5-chloro-2-({1-[2-(3-chlorophenyl)ethyl]-1H-pyrazol-4-yl}amino)pyrimidin-4-yl]amino}bicyclo[2.2.1]hept-5-ene-2-carboxamide], for which the Ki at Aurora B and at Aurora A was below 100 nM throughout.
On to `CCn1cc(Nc2ncc(Cl)c(N[C@@H]3[C@H](C(N)=O)[C@@H]4C=C[C@H]3C4)n2)cn1.CCn1cc(Nc2ncc(Cl)c(N[C@H]3[C@@H](C(N)=O)[C@H]4C=C[C@@H]3C4)n2)cn1` (mixture of isomers) [Example 121, (1S,2R,3S,4R)-3-({5-chloro-2-[(1-ethyl-1H-pyrazol-4-yl)amino]pyrimidin-4-yl}amino)bicyclo[2.2.1]hept-5-ene-2-carboxamide and (1R,2S,3R,4S)-3-({5-chloro-2-[(1-ethyl-1H-pyrazol-4-yl)amino]pyrimidin-4-yl}amino)bicyclo[2.2.1]hept-5-ene-2-carboxamide], for which the Ki at Aurora B and on Aurora A was below 100 nM throughout.
As to `CC(C)CCn1cc(Nc2ncc(Cl)c(N[C@H]3[C@@H](C(N)=O)[C@@H]4C=C[C@H]3C4)n2)cn1` [Example 99, (1S,2S,3R,4R)-3-[(5-chloro-2-[1-(3-methylbutyl)-1H-pyrazol-4-yl]aminopyrimidin-4-yl)amino]bicyclo[2.2.1]hept-5-ene-2-carboxamide], the Ki at Aurora B and at Aurora A was below 100 nM in each case.
